The structures appear in SMILES notation. Where two headings read alike, the source gives them in different places.

Test [1] deals with HIV-1 (strain IIIB). Description: Antiviral activity assay in MT4 cells (propidium iodide based). The class given is cell-based. In short, it runs like this:
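Compound serial dilutions in RPMI/FCS received MT4 cells pre-infected 1 hr at 37°C with HIV-1 IIIB at 100×TCID50. After 5 days' culture and Nonidet-40 lysis, well DNA content was measured by propidium iodide dye; mock-infected cells served as control.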

Test [2] relates to D545701-14 multi protease inhibitor resistant virus. Description: Anti-viral activity against resistant virus D545701-14 in MT4 cells. The class given is cell-based, HIV-1.
For test [3], the system named is EP13 multi protease inhibitor resistant virus. Kind of test: Anti-viral activity against resistant virus EP13 in MT4 cells. The class given is cell-based, HIV-1. In short, it runs like this:
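MT4 cells infected for 1 h at 37 °C, MOI 100×TCID50, then diluted 6-fold onto pre-diluted compound and cultured 5 days (5% CO2). Viable-cell DNA content estimated by propidium iodide. EP13 carries protease mutations M46I, L63P, A71V, V82F/L, I84V, no RT mutations.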

[4] abbreviates: Human immunodeficiency virus 1, IIIB, wild type HIV-1 virus, MT4 cells, read-out: Wildtype virus - IC50.
The mark [5] stands for this setting: Human immunodeficiency virus 1, MT4, read-out: D545701-14 mutant - IC50, D545701-14 multi protease inhibitor resistant virus, MT4 cells.
The mark [6] stands for this setting: Human immunodeficiency virus 1, MT4, read-out: EP13 mutant IC50, EP13 multi protease inhibitor resistant virus, MT4 cells.

Broadly, the IC50 is the midpoint of a concentration-inhibition curve. With `CC(C)CN(C[C@@H](O)[C@H](Cc1ccc(OC(N)=O)cc1)NC(=O)O[C@H]1CO[C@H]2OCC[C@H]21)S(=O)(=O)c1ccc2c(c1)OCO2` [Compound 312, (3R,3aS,6aR)-Hexahydrofuro[2,3-b]furan-3-yl (1S,2R)-1-{4-[(aminocarbonyl)oxy]benzyl}-3-[(1,3-benzodioxol-5-ylsulfonyl)(isobutyl)amino]-2-hydroxypropylcarbamate], the IC50 in test [1] (setting [4]) lay within 0.01 to 0.1 µM; in test [2] (setting [5]), 0.01 to 0.1 µM; in test [3] (setting [6]), 0.001 to 0.01 µM.
On to `CC(C)CN(C[C@@H](O)[C@H](Cc1ccc(OCc2cccc(C#N)c2)cc1)NC(=O)O[C@H]1CO[C@H]2OCC[C@H]21)S(=O)(=O)c1cccc(N)c1` [Compound 289], for which the half-inhibitory concentration (IC50) in test [1] (setting [4]), in test [2] (setting [5]) and in test [3] (setting [6]) was 0.001 to 0.01 µM each time.
As for `COC(=O)CCCOc1ccc(C[C@H](NC(=O)OC2CO[C@H]3OCCC23)[C@H](O)CN(CC(C)C)S(=O)(=O)c2ccc3c(c2)OCO3)cc1` (stereo partly drawn) [Compound 303, Methyl 4-(4-{(2S,3R)-2-({[3R,3aS,6aR)-hexahydrofuro[2,3-b]furan-3-yloxy]carbonyl}amino)-4-[(1,3-benzodioxol-5-ylsulfonyl)(isobutyl)amino]-3-hydroxybutyl}phenoxy) butanoate], the half-inhibitory concentration (IC50) in test [1] (setting [4]), in test [2] (setting [5]) and in test [3] (setting [6]) was 0.01 to 0.1 µM in each case.
As to `CC(C)CN(C[C@@H](O)[C@H](Cc1ccc(OCCCNc2cc[nH]n2)cc1)NC(=O)OC1CO[C@H]2OCC[C@@H]12)S(=O)(=O)c1ccc2c(c1)OCO2` (stereo in doubt) [Compound 281, (3R,3aS,6aR)-hexahydrofuro[2,3-b]furan-3-yl (1S,2R)-3-[(1,3-benzodioxol-5-ylsulfonyl)(isobutyl)amino]-2-hydroxy-1-{4-[3-(1H-pyrazol-3-ylamino)propoxy]benzyl}propylcarbamate], the IC50 in test [1] (setting [4]), in test [2] (setting [5]) and in test [3] (setting [6]) was 0.001 to 0.01 µM each time.
As for `CC(C)CN(C[C@@H](O)[C@H](Cc1ccc(OCCCO)cc1)NC(=O)O[C@H]1CO[C@H]2OCC[C@H]21)S(=O)(=O)c1ccc2c(c1)OCO2` [Compound 319, (3R,3aS,6aR)-Hexahydrofuro[2,3-b]furan-3-yl (1S,2R)-3-[(1,3-benzodioxol-5-ylsulfonyl)(isobutyl)amino]-2-hydroxy-1-[4-(3-hydroxypropoxy)benzyl]propylcarbamate], the IC50 in test [1] (setting [4]), in test [2] (setting [5]) and in test [3] (setting [6]) was 0.001 to 0.01 µM throughout.
Regarding `COc1ccc(-c2nc(COc3ccc(C[C@H](NC(=O)O[C@H]4CO[C@H]5OCC[C@H]54)[C@H](O)CN(CC(C)C)S(=O)(=O)c4ccc5c(c4)OCO5)cc3)no2)cc1` [Compound 391, (3R,3aS,6aR)-hexahydrofuro[2,3-b]furan-3-yl (1S,2R)-3-[(1,3-benzodioxol-5-ylsulfonyl)(isobutyl)amino]-2-hydroxy-1-(4-{[5-(4-methoxyphenyl)-1,2,4-oxadiazol-3-yl]methoxy}benzyl)propylcarbamate], the IC50 in test [1] (setting [4]), in test [2] (setting [5]) and in test [3] (setting [6]) was 0.001 to 0.01 µM in each case.
Turning to `Cc1cc(COc2ccc(C[C@H](NC(=O)O[C@H]3CO[C@H]4OCC[C@H]43)[C@H](O)CN(CC(C)C)S(=O)(=O)c3ccc4c(c3)OCO4)cc2)no1` [Compound 55, Bis-THF Methylenedioxybenzenesulfonamide 3-methyl-5-methylisoxazole Tethered Product], the IC50 in test [1] (Human immunodeficiency virus 1, MT4, 120 h, MT-4 cells, HIV-1 strain IIIB, 5 days, read-out: IC50 (Antiviral Activity of Compounds of the Invention)) was below 0.001 µM; in test [2] (setting [5]), 0.001 to 0.01 µM; in test [3] (setting [6]) it was 0.001 to 0.01 µM.
Consider `CC(C)CN(C[C@@H](O)[C@H](Cc1ccc(OCc2cc(F)cc(F)c2)cc1)NC(=O)O[C@H]1CO[C@H]2OCC[C@H]21)S(=O)(=O)c1ccc2c(c1)OCO2` [Compound 380, (3R,3aS,6aR)-hexahydrofuro[2,3-b]furan-3-yl (1S,2R)-3-[(1,3-benzodioxol-5-ylsulfonyl)(isobutyl)amino]-1-{4-[(3,5-difluorobenzyl)oxy]benzyl}-2-hydroxypropylcarbamate], for which the IC50 in test [1] (setting [4]) was 0.001 to 0.01 µM; in test [2] (setting [5]), 0.01 to 0.1 µM; in test [3] (setting [6]) it was 0.001 to 0.01 µM.
With `CNC(=O)OCCCCOc1ccc(C[C@H](NC(=O)O[C@H]2CO[C@H]3OCC[C@H]32)[C@H](O)CN(CC(C)C)S(=O)(=O)c2ccc3c(c2)OCO3)cc1` [Compound 318, (3R,3aS,6aR)-Hexahydrofuro[2,3-b]furan-3-yl (1S,2R)-3-[(1,3-benzodioxol-5-ylsulfonyl)(isobutyl)amino]-2-hydroxy-1-[4-(4-{[(methylamino)carbonyl]oxy}butoxy)benzyl]propylcarbamate], the IC50 in test [1] (setting [4]), in test [2] (setting [5]) and in test [3] (setting [6]) was 0.001 to 0.01 µM each time.
In the case of `CC(=O)NCCOc1ccc(C[C@H](NC(=O)O[C@H]2CO[C@H]3OCC[C@H]32)[C@H](O)CN(CC(C)C)S(=O)(=O)c2ccc3c(c2)OCO3)cc1` [Compound 355, (3R,3aS,6aR)hexahydrofuro[2,3-b]furan-3-yl (1S,2R)-3-[(1,3-benzodioxol-5-ylsulfonyl)(isobutyl)amino]-2-hydroxy-1-[4-(2-[acetylamino]ethoxy)benzyl]propylcarbamate], the IC50 in test [1] (setting [4]), in test [2] (setting [5]) and in test [3] (setting [6]) was 0.01 to 0.1 µM each time.
Take `CC(C)CN(C[C@@H](O)[C@H](Cc1ccc(OCCCN2CCSC2)cc1)NC(=O)O[C@H]1CO[C@H]2OCC[C@H]21)S(=O)(=O)c1ccc2c(c1)OCO2` [Compound 277, (3R,3aS,6aR)-hexahydrofuro[2,3-b]furan-3-yl (1S,2R)-3-[(1,3-benzodioxol-5-ylsulfonyl)(isobutyl)amino]-2-hydroxy-1-{4-[3-(1,3-thiazolidin-3-yl)propoxy]benzyl}propylcarbamate]: the IC50 in test [1] (setting [4]), in test [2] (setting [5]) and in test [3] (setting [6]) was 0.001 to 0.01 µM in each case.
Regarding `CNC(=O)Oc1ccc(C[C@H](NC(=O)O[C@H]2CO[C@H]3OCC[C@H]32)[C@H](O)CN(CC(C)C)S(=O)(=O)c2ccc3c(c2)OCO3)cc1` [Compound 309, (3R,3aS,6aR)-Hexahydrofuro[2,3-b]furan-3-yl (1S,2R)-3-[(1,3-benzodioxol-5-ylsulfonyl)(isobutyl)amino]-2-hydroxy-1-(4-{[(methylamino)carbonyl]oxy}benzyl)propylcarbamate], the 50% inhibitory concentration (IC50) in test [1] (setting [4]) is 0.001 to 0.01 µM; in test [2] (Human immunodeficiency virus 1, MT4, read-out: D545701-14 mutant - IC50), 0.001 to 0.01 µM; in test [3] (Human immunodeficiency virus 1, MT4, read-out: EP13 mutant IC50) it was 0.001 to 0.01 µM.
For the molecule `CC(C)CN(C[C@@H](O)[C@H](Cc1ccc(OC(=N)N(C)C)cc1)NC(=O)O[C@H]1CO[C@H]2OCC[C@H]21)S(=O)(=O)c1ccc2c(c1)OCO2` [Compound 331, (3R,3aS,6aR)-Hexahydrofuro[2,3-b]furan-3-yl (1S,2R)-3-[(1,3-benzodioxol-5-ylsulfonyl)(isobutyl)amino]-1-{4-[(dimethylamino) (imino)methoxy]benzyl}-2-hydroxypropylcarbamate], the half-inhibitory concentration (IC50) in test [1] (setting [4]), in test [2] (setting [5]) and in test [3] (setting [6]) was 0.01 to 0.1 µM in each case.
As to `CNC(=O)CCCOc1ccc(C[C@H](NC(=O)OC2CO[C@H]3OCC[C@@H]23)[C@H](O)CN(CC(C)C)S(=O)(=O)c2ccc3c(c2)OCO3)cc1` (stereo in doubt) [Compound 286, (3R,3aS,6aR)-hexahydrofuro[2,3-b]furan-3-yl (1S,2R)-3-[(1,3-benzodioxol-5-ylsulfonyl)(isobutyl)amino]-2-hydroxy-1-{4-[4-(methylamino)-4-oxobutoxy]benzyl}propylcarbamate], the figures for the IC50 in test [1] (setting [4]), in test [2] (setting [5]) and in test [3] (setting [6]) were 0.01 to 0.1 µM, 0.001 to 0.01 µM and 0.001 to 0.01 µM, respectively.
Take `Cc1noc(C)c1-c1nc(COc2ccc(C[C@H](NC(=O)O[C@H]3CO[C@H]4OCC[C@H]43)[C@H](O)CN(CC(C)C)S(=O)(=O)c3ccc4c(c3)OCO4)cc2)no1` [Compound 389, (3R,3aS,6aR)-hexahydrofuro[2,3-b]furan-3-yl (1S,2R)-3-[(1,3-benzodioxol-5-ylsulfonyl)(isobutyl)amino]-1-(4-{[5-(3,5-dimethyl-4-isoxazolyl)-1,2,4-oxadiazol-3-yl]methoxy}benzyl)-2-hydroxypropylcarbamate]: the IC50 in test [1] (setting [4]), in test [2] (setting [5]) and in test [3] (setting [6]) was 0.001 to 0.01 µM throughout.
`Cc1noc(C)c1COc1ccc(C[C@H](NC(=O)O[C@H]2CO[C@H]3OCC[C@H]32)[C@H](O)CN(CC(C)C)S(=O)(=O)c2ccc3c(c2)OCO3)cc1` [Compound 385, (3R,3aS,6aR)-hexahydrofuro[2,3-b]furan-3-yl (1S,2R)-3-[(1,3-benzodioxol-5-ylsulfonyl)(isobutyl)amino]-1-{4-[(3,5-dimethyl-4-isoxazolyl)methoxy]benzyl}-2-hydroxypropylcarbamate]: the IC50 lay in the range of 0.001 to 0.01 µM in test [1] (setting [4]), 0.01 to 0.1 µM in test [2] (setting [5]) and 0.001 to 0.01 µM in test [3] (setting [6]).

The values above are taken from patent US8455497B2, “Inhibitors of aspartyl protease” (Vertex Pharmaceuticals Incorporated, priority 1999, dated 2013).
